Tests used:
Type in all cases: functional
RPMI-8226 = test: Cytotoxicity against human RPMI8226 cells assessed as growth inhibition
HL-60(TB) = test: Cytotoxicity against human HL-60(TB) cells assessed as growth inhibition
K562 = test: Cytotoxicity against human K562 cells assessed as growth inhibition
CCRF-CEM = test: Cytotoxicity against human CCRF-CEM cells assessed as growth inhibition
MDA-MB-468 = test: Cytotoxicity against human MDA-MB-468 cells assessed as growth inhibition
T47D = test: Cytotoxicity against human T47D cells assessed as growth inhibition
BT-549 = test: Cytotoxicity against human BT549 cells assessed as growth inhibition
[1] = Cytotoxicity against human Hs 578T cells assessed as growth inhibition
MDA-MB-231 = test: Cytotoxicity against human MDA-MB-231 cells assessed as growth inhibition
MCF7 = test: Cytotoxicity against human MCF7 cells assessed as growth inhibition
DU-145 = test: Cytotoxicity against human DU145 cells assessed as growth inhibition
PC-3 = test: Cytotoxicity against human PC3 cells assessed as growth inhibition
TK-10 = test: Cytotoxicity against human TK10 cells assessed as growth inhibition
[2] = Cytotoxicity against human UO31 cells assessed as growth inhibition; conditions: UO-31
SN12C = test: Cytotoxicity against human SN12C cells assessed as growth inhibition
RXF 393 = test: Cytotoxicity against human RXF393 cells assessed as growth inhibition
CAKI-1 = test: Cytotoxicity against human CAKI-1 cells assessed as growth inhibition
ACHN = test: Cytotoxicity against human ACHN cells assessed as growth inhibition
786-0 = test: Cytotoxicity against human 786-0 cells assessed as growth inhibition
A498 = test: Cytotoxicity against human A498 cells assessed as growth inhibition
SK-OV-3 = test: Cytotoxicity against human SKOV3 cells assessed as growth inhibition
[3] = Cytotoxicity against human NCI-ADR-RES cells assessed as growth inhibition
[4] = Cytotoxicity against human OVCAR8 cells assessed as growth inhibition; conditions: OVCAR-8
[5] = Cytotoxicity against human OVCAR5 cells assessed as growth inhibition; conditions: OVCAR-5
[6] = Cytotoxicity against human OVCAR4 cells assessed as growth inhibition; conditions: OVCAR-4
[7] = Cytotoxicity against human OVCAR3 cells assessed as growth inhibition; conditions: OVCAR-3
[8] = Cytotoxicity against human UACC62 cells assessed as growth inhibition; conditions: UACC-62
IGROV-1 = test: Cytotoxicity against human IGROV1 cells assessed as growth inhibition
[9] = Cytotoxicity against human UACC257 cells assessed as growth inhibition; conditions: UACC-257
SK-MEL-5 = test: Cytotoxicity against human SK-MEL-5 cells assessed as growth inhibition
SK-MEL-28 = test: Cytotoxicity against human SK-MEL-28 cells assessed as growth inhibition
SK-MEL-2 = test: Cytotoxicity against human SK-MEL-2 cells assessed as growth inhibition
MDA-MB-435 = test: Cytotoxicity against human MDA-MB-435 cells assessed as growth inhibition
M14 = test: Cytotoxicity against human M14 cells assessed as growth inhibition
Malme-3M = test: Cytotoxicity against human MALME-3M cells assessed as growth inhibition
LOX IMVI = test: Cytotoxicity against human LOXIMVI cells assessed as growth inhibition
U-251 = test: Cytotoxicity against human U251 cells assessed as growth inhibition
SNB-75 = test: Cytotoxicity against human SNB75 cells assessed as growth inhibition
SNB-19 = test: Cytotoxicity against human SNB19 cells assessed as growth inhibition
SF-295 = test: Cytotoxicity against human SF295 cells assessed as growth inhibition
SF-539 = test: Cytotoxicity against human SF539 cells assessed as growth inhibition
SF-268 = test: Cytotoxicity against human SF268 cells assessed as growth inhibition
SW-620 = test: Cytotoxicity against human SW620 cells assessed as growth inhibition
KM12 = test: Cytotoxicity against human KM12 cells assessed as growth inhibition
HT-29 = test: Cytotoxicity against human HT-29 cells assessed as growth inhibition
[10] = Cytotoxicity against human HCT15 cells assessed as growth inhibition; conditions: HCT-15
HCT-116 = test: Cytotoxicity against human HCT116 cells assessed as growth inhibition
HCC 2998 = test: Cytotoxicity against human HCC2998 cells assessed as growth inhibition
NCI-H522 = test: Cytotoxicity against human NCI-H522 cells assessed as growth inhibition
COLO 205 = test: Cytotoxicity against human COLO205 cells assessed as growth inhibition
NCI-H460 = test: Cytotoxicity against human NCI-H460 cells assessed as growth inhibition
NCI-H23 = test: Cytotoxicity against human NCI-H23 cells assessed as growth inhibition
NCI-H322M = test: Cytotoxicity against human NCI-H322M cells assessed as growth inhibition
NCI-H226 = test: Cytotoxicity against human NCI-H226 cells assessed as growth inhibition
HOP-62 = test: Cytotoxicity against human HOP62 cells assessed as growth inhibition
HOP-92 = test: Cytotoxicity against human HOP92 cells assessed as growth inhibition
A549 = test: Cytotoxicity against human A549 cells assessed as growth inhibition
[11] = Cytotoxicity against human EKVX cells assessed as growth inhibition
SR = test: Cytotoxicity against human SR cells assessed as growth inhibition
MOLT-4 = test: Cytotoxicity against human MOLT4 cells assessed as growth inhibition

Structure (SMILES): Cc1cc(/C=C2\CCc3c(n(C)c4ccccc34)C2=O)cc(C)c1O
- GI50 (RPMI-8226): 760 nM
- GI50 (HL-60(TB)): 340 nM
- GI50 (K562): 330 nM
- GI50 (CCRF-CEM): 740 nM
- GI50 (MDA-MB-468): 310 nM
- GI50 (T47D): 2060 nM
- GI50 (BT-549): 2840 nM
- GI50 [1]: 730 nM
- GI50 (MDA-MB-231): 1060 nM
- GI50 (MCF7): 370 nM
- GI50 (DU-145): 1850 nM
- GI50 (PC-3): 2490 nM
- GI50 (TK-10): 1080 nM
- GI50 [2]: 730 nM
- GI50 (SN12C): 720 nM
- GI50 (RXF 393): 1080 nM
- GI50 (CAKI-1): 840 nM
- GI50 (ACHN): 830 nM
- GI50 (786-0): 3250 nM
- GI50 (A498): 3390 nM
- GI50 (SK-OV-3): 1520 nM
- GI50 [3]: 340 nM
- GI50 [4]: 920 nM
- GI50 [5]: 5100 nM
- GI50 [6]: 3870 nM
- GI50 [7]: 350 nM
- GI50 [8]: 410 nM
- GI50 (IGROV-1): 1590 nM
- GI50 [9]: 5830 nM
- GI50 (SK-MEL-5): 410 nM
- GI50 (SK-MEL-28): 640 nM
- GI50 (SK-MEL-2): 330 nM
- GI50 (MDA-MB-435): 160 nM
- GI50 (M14): 390 nM
- GI50 (Malme-3M): 450 nM
- GI50 (LOX IMVI): 700 nM
- GI50 (U-251): 540 nM
- GI50 (SNB-75): 410 nM
- GI50 (SNB-19): 630 nM
- GI50 (SF-295): 1480 nM
- GI50 (SF-539): 700 nM
- GI50 (SF-268): 720 nM
- GI50 (SW-620): 430 nM
- GI50 (KM12): 450 nM
- GI50 (HT-29): 4180 nM
- GI50 [10]: 510 nM
- GI50 (HCT-116): 390 nM
- GI50 (HCC 2998): 3610 nM
- GI50 (NCI-H522): 140 nM
- GI50 (COLO 205): 22900 nM
- GI50 (NCI-H460): 390 nM
- GI50 (NCI-H23): 2530 nM
- GI50 (NCI-H322M): 2730 nM
- GI50 (NCI-H226): 4380 nM
- GI50 (HOP-62): 720 nM
- GI50 (HOP-92): 6560 nM
- GI50 (A549): 740 nM
- GI50 [11]: 4840 nM
- GI50 (SR): 340 nM
- GI50 (MOLT-4): 800 nM

Structure (SMILES): Cc1cc(/C=C2\Cc3c([nH]c4ccccc34)C2=O)cc(C)c1O
- GI50 (RPMI-8226): 670 nM
- GI50 (HL-60(TB)): 340 nM
- GI50 (K562): 330 nM
- GI50 (CCRF-CEM): 2180 nM
- GI50 (MDA-MB-468): 2430 nM
- GI50 (T47D): 12600 nM
- GI50 [1]: 550 nM
- GI50 (MDA-MB-231): 3190 nM
- GI50 (MCF7): 700 nM
- GI50 (DU-145): 2050 nM
- GI50 (PC-3): 3570 nM
- GI50 (TK-10): 6270 nM
- GI50 [2]: 320 nM
- GI50 (SN12C): 620 nM
- GI50 (RXF 393): 1430 nM
- GI50 (CAKI-1): 1400 nM
- GI50 (786-0): 5960 nM
- GI50 (A498): 4860 nM
- GI50 (SK-OV-3): 730 nM
- GI50 [3]: 350 nM
- GI50 [4]: 990 nM
- GI50 [5]: 11100 nM
- GI50 [6]: 10200 nM
- GI50 [7]: 510 nM
- GI50 [8]: 4570 nM
- GI50 (IGROV-1): 3540 nM
- GI50 [9]: 26100 nM
- GI50 (SK-MEL-5): 390 nM
- GI50 (SK-MEL-28): 730 nM
- GI50 (SK-MEL-2): 400 nM
- GI50 (MDA-MB-435): 160 nM
- GI50 (M14): 410 nM
- GI50 (Malme-3M): 310 nM
- GI50 (LOX IMVI): 690 nM
- GI50 (U-251): 1120 nM
- GI50 (SNB-75): 290 nM
- GI50 (SNB-19): 710 nM
- GI50 (SF-295): 2780 nM
- GI50 (SF-539): 550 nM
- GI50 (SF-268): 860 nM
- GI50 (SW-620): 410 nM
- GI50 (KM12): 460 nM
- GI50 (HT-29): 15800 nM
- GI50 [10]: 560 nM
- GI50 (HCT-116): 500 nM
- GI50 (HCC 2998): 7490 nM
- GI50 (NCI-H522): 90 nM
- GI50 (COLO 205): 19500 nM
- GI50 (NCI-H460): 420 nM
- GI50 (NCI-H23): 1790 nM
- GI50 (NCI-H322M): 10400 nM
- GI50 (NCI-H226): 9600 nM
- GI50 (HOP-62): 650 nM
- GI50 (HOP-92): 7470 nM
- GI50 (A549): 1580 nM
- GI50 [11]: 2590 nM
- GI50 (SR): 390 nM
- GI50 (MOLT-4): 6010 nM
